From the NIST ThermoML archive (doi:10.1021/acs.jced.8b00590)

Conditions: Liquid; for mass density / viscosity: 101.3 kPa; for mass density: Vibrating tube method; for viscosity: Falling or rolling sphere viscometry; for vapor or sublimation pressure: Ebulliometric method (Recirculating still)

CCCCC#N [pentanenitrile]
Conditions | mass density [kg/m3] | vapor or sublimation pressure [kPa] | viscosity [mPa·s]
283.15 K | 807.7 | – | –
293.15 K | 799.1 | – | 0.7191
303.15 K | 790.4 | – | –
313.15 K | 781.7 | – | 0.5654
323.15 K | 772.9 | – | –
329.35 K | – | 5 | –
333.15 K | 764.2 | – | 0.4567
344.89 K | – | 9.9 | –
345.13 K | – | 10 | –
362.77 K | – | 20 | –
374.08 K | – | 30 | –
386.22 K | – | 45 | –
395.4 K | – | 60 | –
407.76 K | – | 86.4 | –
411.12 K | – | 95 | –
412.96 K | – | 100 | –

Clc1ccccc1Cl [1,2-dichlorobenzene]
Conditions | vapor or sublimation pressure [kPa]
360.41 K | 4.86
377.35 K | 9.95
388.41 K | 14.98
396.96 K | 20.04
403.4 K | 24.99
408.91 K | 30
414.16 K | 35.02
418.75 K | 40.02
422.87 K | 45.05
429.99 K | 55.03
433.29 K | 59.97
438.87 K | 69.93
443.92 K | 79.98
448.94 K | 90.2
451.11 K | 95.11
452.62 K | 98.36
